Experimental data from patent US10905683B2, “Compositions and uses of amidine derivatives” (BIOCRYST PHARMACEUTICALS, INC., priority 2014, dated 2021).
In brackets after ≈: the same amount, converted by molar mass. Several values for one entry are separate records, joined by “and”; a condition that tells them apart may be missing. Equal entries are not always repeated. Where two headings read alike, the source gives them in different places.

How the values were obtained:
[1] = pH-solubility curve in citrate-phosphate buffers; type: physicochemical; conditions: free base, FIG. 1
Source text: A pH-solubility curve was generated for the compound of Example 1 in citrate-phosphate buffers to evaluate the effect of pH on solubility of the free base material.

[2] = Further solubility studies in solvents, mixtures and surfactants; type: physicochemical; conditions: thermodynamic from solid
Experimental: The solubility of the compound of Example 1 in a range of organic solvents, mixtures thereof, and some including surfactants, was measured. […] solubility assays were performed by the sequential addition of the compound of Example 1 to an appropriate organic solvent while stirring vigorously until a precipitate is formed. The resulting suspension is then shaken for 24 hours at room temperature, filtered and the resulting solution was analyzed by appropriate analytical method. Quantitation was performed by comparison of the concentrations of the resulting solution of the compound 1 to a single point calibration curve using a solution of the reference standard. The results are shown in Table 8, in which all percentages are expressed by weight of the total weight of excipients, i.e. excluding the active and the following abbreviations are used: […]

[3] = Solubility with cyclodextrins and co-agents; type: physicochemical; conditions: for solubility: aqueous with cosolvent or surfactant or cyclodextrin, thermodynamic from solid
Experimental: Additional solubility studies were undertaken using cyclodextrins, including α-cyclodextrin and a polyanionic β-cyclodextrin derivative with a sodium sulfonate salt separated from the lipophilic cavity by a butyl ether or sulfobutylether spacer group) (referred to herein as Captisol) in combination with a variety of co-agents.
Test samples were prepared with the indicated cyclodextrins and the compound of Example 1, both with and without additional agents. The test solutions were sonicated in a Fisher model 55 dismembrator (small probe) at its maximum setting of 5 for 90 seconds. The samples were rotated overnight at room temperature to allow equilibration. Quantitation was performed by comparison of the concentrations of the resulting solution of the compound 1 to a single point calibration curve using a solution of the reference standard.

[4] = Absorption enhancement studies in the rat, intragastric dosing, plasma concentration
Experimental: Based on the solubility data that was reported previously, combinations of solvents were evaluated to study the effect of formulation composition on oral absorption.
Combinations of solvents and surfactants were evaluated in rat, dog and nonhuman primate models at levels appropriate for a potential human oral pharmaceutical product.
The early studies in rats used aqueous dosing solutions.
These formulations included a variety of solvents and co-solvents for evaluation to maximize absorption and form a physicochemically stable liquid. Unless otherwise indicated, the percentages are expressed by weight as a proportion of the total weight of all excipients present in the mixture (i.e. excluding the active ingredient).

[5] = Concentration achieved in formulations and excipient mixtures; type: physicochemical
Experimental: In initial formulation work for the amidine compounds described herein, in particular 3-[2-(4-carbamimidoyl-phenylcarbamoyl)-5-methoxy-4-vinyl-phenyl]-6-(cyclopropylmethyl-carbamoyl)-pyridine-2-carboxylic acid, extensive studies were carried out to identify a suitable mixture of excipients to produce the oral formulation described herein.
Specifically, a variety of approaches were taken to develop suitable oral formulations of 3-[2-(4-carbamimidoyl-phenylcarbamyl)-5-methoxy-4-vinyl-phenyl]-6-(cyclopropylmethyl-carbamoyl)-pyridine-2-carboxylic acid. The approaches taken included use of a variety of hydrophilic polymers, including α-cyclodextrin and a polyanionic 3-cyclodextrin derivative with a sodium sulfonate salt separated from the lipophilic cavity by a butyl ether or sulfobutylether spacer group in combination with a variety of co-solvents. In addition, the compound was evaluated in formulations created by a number of different technologies (such as dry blends, nanosuspensions, solid dispersion and emulsions) using a variety of approaches.

[6] = rat, intragastric 5 mg/Kg, aqueous dosing solution, individual rats 1-4

C=Cc1cc(C(=O)Nc2ccc(C(=N)N)cc2)c(-c2ccc(C(=O)NCC3CC3)nc2C(=O)O)cc1OC [Example 1, 3-[2-(4-carbamimidoyl-phenylcarbamoyl)-5-methoxy-4-vinyl-phenyl]-6-(cyclopropylmethyl-carbamoyl)-pyridine-2-carboxylic acid]
effect of pH on aqueous solubility [1]: not a significant effect | solubility at 24 h ([2]; 2.5% SLS in 97.5% PEG400, organic solvent or mixture, 2.5% SLS in 97.5% PEG400, read-out: Example 1 Solubility After 24 hrs): 31300 µg/mL (≈ 60.9 mM) | solubility at 24 h ([2]; 2.5% SLS in 97.5% PEG600, organic solvent or mixture, 2.5% SLS in 97.5% PEG600, read-out: Example 1 Solubility After 24 hrs): 25900 µg/mL (≈ 50.4 mM) | solubility at 24 h ([2]; 2.5% SLS in 97.5% PG, organic solvent or mixture, 2.5% SLS in 97.5% PG, read-out: Example 1 Solubility After 24 hrs): > 100000 µg/mL | solubility at 24 h ([2]; 2.5% SLS/8% EtOH/10% PG in 79.5% PEG600, organic solvent or mixture, 2.5% SLS/8% EtOH/10% PG in 79.5% PEG600, read-out: Example 1 Solubility After 24 hrs): 57300 µg/mL (≈ 112 mM) | solubility at 24 h ([2]; 6% EtOH/15% glycerin/79% water containing 0.3% Tween80, aqueous with cosolvent or surfactant or cyclodextrin, 6% EtOH/15% glycerin/79% water containing 0.3% Tween80, read-out: Example 1 Solubility After 24 hrs): 300 µg/mL (≈ 0.584 mM) | solubility at 24 h ([2]; 6% EtOH/15% glycerin/79% water, aqueous with cosolvent or surfactant or cyclodextrin, 6% EtOH/15% glycerin/79% water, read-out: Example 1 Solubility After 24 hrs): 70 µg/mL (≈ 0.136 mM) | solubility at 24 h ([2]; 8% EtOH/10% PG in 82% PEG600, organic solvent or mixture, 8% EtOH/10% PG in 82% PEG600, read-out: Example 1 Solubility After 24 hrs): 61000 µg/mL (≈ 119 mM) | solubility at 24 h ([2]; 10% EtOH in 90% PEG400, organic solvent or mixture, 10% EtOH in 90% PEG400, read-out: Example 1 Solubility After 24 hrs): 61400 µg/mL (≈ 120 mM) | solubility at 24 h ([2]; 10% EtOH in 90% PEG600, organic solvent or mixture, 10% EtOH in 90% PEG600, read-out: Example 1 Solubility After 24 hrs): 61400 µg/mL (≈ 120 mM) | solubility at 24 h ([2]; 10% EtOH with 90% PG, organic solvent or mixture, 10% EtOH with 90% PG, read-out: Example 1 Solubility After 24 hrs): > 100000 µg/mL | solubility at 24 h ([2]; 20% PG in 80% PEG400, organic solvent or mixture, 20% PG in 80% PEG400, read-out: Example 1 Solubility After 24 hrs): 52900 µg/mL (≈ 103 mM) | solubility at 24 h ([2]; 20% PG in 80% PEG600, organic solvent or mixture, 20% PG in 80% PEG600, read-out: Example 1 Solubility After 24 hrs): 52400 µg/mL (≈ 102 mM) | solubility at 24 h ([2]; PG/PEG mixtures, organic solvent or mixture, some PG/PEG mixtures, read-out: solubility): 50000 to 60000 µg/mL (≈ 97.4 to 117 mM) | solubility at 24 h ([2]; mixtures of 90% or more propylene glycol, organic solvent or mixture, some mixtures composed of 90% or more propylene glycol, read-out: solubility): > 100000 µg/mL | solubility at 24 h ([2]; propylene glycol, organic solvent or mixture, Propylene Glycol, read-out: Example 1 Solubility After 24 hrs): > 150000 µg/mL | solubility at 24 h ([2]; propylene glycol, organic solvent or mixture, propylene glycol (PG), read-out: solubility): 150000 µg/mL (≈ 292 mM) | solubility ([3]; Captisol 150 mM with DMSO 10%, Captisol 150 mM, DMSO 10%): 3980 µg/mL | solubility ([3]; Captisol 150 mM with ethanol 10%, Captisol 150 mM, Ethanol 10%): 3550 µg/mL | solubility ([3]; Captisol 150 mM with propylene glycol 10%, Captisol 150 mM, Propylene glycol 10%): 3300 µg/mL | solubility ([3]; Captisol 150 mM with sodium dodecyl sulphate 100 mg, Captisol 150 mM, Sodium dodecyl sulphate 100 mg): 240 µg/mL | solubility ([3]; Captisol (sulfobutylether β-cyclodextrin) solution, Captisol 150 mM, no co-solvent): 7610 µg/mL | solubility ([3]; Captisol solution with co-agent, Captisol 150 mM, HPMC E-5 0.25%): 4160 µg/mL | solubility ([3]; Captisol solution with co-agent, Captisol 150 mM, Polyethylene glycol 400 10%): 5460 µg/mL | solubility in cyclodextrins ([3]; with and without co-agents): not soluble in cyclodextrins | solubility ([3]; α-cyclodextrin 150 mM with DMSO 10%, α-cyclodextrin 150 mM, DMSO 10%): 11100 µg/mL | solubility ([3]; α-cyclodextrin 150 mM with ethanol 10%, α-cyclodextrin 150 mM, Ethanol 10%): 270 µg/mL | solubility ([3]; α-cyclodextrin 150 mM with propylene glycol 10%, α-cyclodextrin 150 mM, Propylene glycol 10%): 4980 µg/mL | solubility ([3]; α-cyclodextrin solution with co-agent, α-cyclodextrin 150 mM, HPMC E-5 0.25%): 9950 µg/mL | solubility ([3]; α-cyclodextrin solution with co-agent, α-cyclodextrin 150 mM, Polyethylene glycol 400 10%): 5000 µg/mL | solubility ([3]; α-cyclodextrin solution with co-agent, α-cyclodextrin 150 mM, Sodium dodecyl sulphate 100 mg): 10000 µg/mL | solubility ([3]; α-cyclodextrin solution, α-cyclodextrin 150 mM, no co-solvent): 10000 µg/mL | concentration at 0 min ([4]; rat, in vivo, 5 mg/Kg, Plasma concentration, 0 min, intragastric 5 mg/Kg, aqueous dosing solution, individual rats 1-4): 0 ng/mL | Plasma concentration, 0 min [4, 6]: 0 ng/mL | Plasma concentration, 30 min [4, 6]: 108 ng/mL and <10 ng/mL and 188 ng/mL and 23 ng/mL | Plasma concentration, 1 hr [4, 6]: 88 ng/mL and <10 ng/mL and 130 ng/mL and 30 ng/mL | Plasma concentration, 2 hr [4, 6]: 123 ng/mL and <10 ng/mL and 87 ng/mL and 27 ng/mL | Plasma concentration, 4 hr [4, 6]: 134 ng/mL and <10 ng/mL and 99 ng/mL and 24 ng/mL | Plasma concentration, 8 hr [4, 6]: 48 ng/ml and <10 ng/ml (2×) and 30 ng/ml | Gastrointestinal (GI) absorption ([4]; rats, aqueous dosing solutions): very low or zero | concentration dissolved ([5]; 1,2-propanediol, especially as part of a mixture of polar protic solvents): up to 140 mg/ml | concentration in formulation ([5]; initial formulations: cyclodextrins, co-solvents, dry blends, nanosuspensions, solid dispersion, emulsions): less than 10.5 mg/ml | concentration in formulation ([5]; novel excipient mixtures of the invention): at least 100 mg/ml | concentration dissolved ([5]; polyethylene glycol 600, especially as part of a mixture of polar protic solvents): up to 140 mg/ml
